From PubChem BioAssay (NCI) come the findings set out here.

Among the test systems are DU-145 prostate; PC-3 prostate; NCI-H23 lung; SK-MEL-28 melanoma; SNB-75 CNS; SK-MEL-2 melanoma; SK-OV-3 ovarian.
Experiment in all cases: DTP human tumour cell line panel, 48 h

SMILES strings stand for the structures. Where “and” joins values, the source holds several entries; their conditions need not be identical. Equal values may be shown once.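 A five-concentration, 48-hour dose response in 96-well plates underlies each endpoint, interpolated linearly between surrounding concentrations. GI50 is the concentration that inhibits growth by half. TGI marks complete inhibition of growth.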 A value given as a limit tells only on which side of the number the result lay.

Take `Clc1cc(Cl)c(OCC#CI)cc1Cl`: the GI50 (usually the concentration at which growth is held to half of that of the control) is 3.01 µM with DU-145 prostate; 12.7 µM in the assay with PC-3 prostate; 12.6 µM in the assay with NCI-H23 lung; 2.12 µM with SK-MEL-28 melanoma; 6.13 µM with SNB-75 CNS; 7.98 µM in the assay on SK-MEL-2 melanoma. Further, the total growth inhibition concentration (TGI) (commonly the concentration giving total growth inhibition) in the assay with DU-145 prostate came out at 10 µM; in the assay with PC-3 prostate it was 27.9 µM; in the assay with NCI-H23 lung, 26.7 µM; in the assay on SK-MEL-28 melanoma, 5.14 µM; with SNB-75 CNS, 20 µM; in the assay on SK-MEL-2 melanoma, 21.3 µM.
As for `COc1ccc(-c2n[nH]nc2-c2cc(OC)c3c(c2OC)OCO3)cc1`, the GI50 in the assay on SK-OV-3 ovarian is 1.27 µM; in the assay on DU-145 prostate, 1.61 µM; in the assay with PC-3 prostate it was 1.87 µM; in the assay on NCI-H23 lung, 1.25 µM; in the assay with SK-MEL-28 melanoma, 1.95 µM; in the assay on SNB-75 CNS, 0.573 µM. In addition, the GI50 with SK-MEL-2 melanoma was 0.596 µM. Also, the total growth inhibition concentration (TGI) in the assay on SK-OV-3 ovarian was 9.3 µM; with DU-145 prostate, 13.6 µM; with PC-3 prostate it was more than 100 µM; in the assay with NCI-H23 lung, 26.5 µM; in the assay on SK-MEL-28 melanoma, more than 100 µM; in the assay with SNB-75 CNS, 3.96 µM. Moreover, the TGI with SK-MEL-2 melanoma is 11.4 µM.
As to `Cc1ccc(-c2cc(-c3ccc(C)cc3)nc(NCCNc3ccnc4cc(Cl)ccc34)n2)cc1`, the GI50 with SK-OV-3 ovarian is 1.75 µM; with DU-145 prostate, 1.81 µM; in the assay with NCI-H23 lung, 1.91 µM; in the assay with SK-MEL-28 melanoma, 1.76 µM; in the assay with SNB-75 CNS, 1.48 µM; in the assay on SK-MEL-2 melanoma, 1.9 µM. The TGI was determined as 3.34 µM in the assay with SK-OV-3 ovarian; 3.31 µM with DU-145 prostate; 3.85 µM with NCI-H23 lung; 3.38 µM in the assay on SK-MEL-28 melanoma; 3.02 µM in the assay on SNB-75 CNS; 3.63 µM in the assay on SK-MEL-2 melanoma.
For `Cc1cc(N/N=C/c2nc(-c3ccc(Br)cc3)oc2C)c2cc(Cl)ccc2n1`, the GI50 in the assay with SK-OV-3 ovarian, with DU-145 prostate, with PC-3 prostate, in the assay with NCI-H23 lung, in the assay on SK-MEL-28 melanoma and in the assay with SNB-75 CNS was more than 100 µM in each case. In addition, the GI50 in the assay with SK-MEL-2 melanoma was more than 100 µM. In addition, the TGI in the assay on SK-OV-3 ovarian, in the assay on DU-145 prostate, in the assay with PC-3 prostate, in the assay on NCI-H23 lung, with SK-MEL-28 melanoma and in the assay on SNB-75 CNS was more than 100 µM in each case. This compound gave a TGI with SK-MEL-2 melanoma of more than 100 µM.
For the compound `CCCCCCCCCCCCCCCCCC(=O)OCC(COC1OC(COP(=O)(O)O)C(O)C(O)C1O)OC(=O)CCCCCCCCCCCCCCCCC` (stereo unspecified), the concentration for total growth inhibition (TGI) in the assay with SK-OV-3 ovarian was 15.4 µM; with DU-145 prostate it was 16.8 µM; in the assay with PC-3 prostate, 14.3 µM; with NCI-H23 lung it was 15 µM; with SK-MEL-28 melanoma it was 18 µM; in the assay on SNB-75 CNS it was 11.5 µM.
Take `C/C(=N\Nc1ccc2ccccc2n1)c1ccccn1`: the GI50 in the assay on SK-OV-3 ovarian is 0.132 µM; in the assay on DU-145 prostate, 0.107 µM; in the assay with NCI-H23 lung, 0.156 µM; in the assay on SK-MEL-28 melanoma, 0.345 µM; in the assay with SNB-75 CNS it was 0.123 µM; in the assay on SK-MEL-2 melanoma, 0.263 µM. The TGI was found to be 13.6 µM in the assay with SK-OV-3 ovarian; 5.25 µM with DU-145 prostate; 7.23 µM with PC-3 prostate; 13.6 µM in the assay with NCI-H23 lung; 16.2 µM with SK-MEL-28 melanoma; 17.6 µM in the assay on SNB-75 CNS. Further, in the assay on SK-MEL-2 melanoma, the TGI is 9.01 µM.
`O=C(/C(=C/c1ccc([N+](=O)[O-])cc1)c1ccccc1)c1ccccc1`: the GI50 is 4.19 µM in the assay with SK-OV-3 ovarian; 3.17 µM with DU-145 prostate; 4.28 µM in the assay with PC-3 prostate; 2.27 µM in the assay with SK-MEL-28 melanoma; 2.11 µM in the assay on SNB-75 CNS. In addition, the TGI in the assay on SK-OV-3 ovarian was more than 100 µM; with DU-145 prostate, more than 100 µM; with PC-3 prostate, more than 100 µM; in the assay on SK-MEL-28 melanoma, 5.63 µM; with SNB-75 CNS it was 7.32 µM.
As to `CS(=O)(=O)c1ccc(C(=O)Nc2ccc(Cl)c(-c3ccccn3)c2)c(Cl)c1`, the GI50 is more than 100 µM with SK-OV-3 ovarian; 14.4 µM and 3.14 µM in the assay on SNB-75 CNS. Further, the TGI with SK-OV-3 ovarian was more than 100 µM; in the assay with DU-145 prostate, more than 100 µM; in the assay with PC-3 prostate, > 100 µM and 33.7 µM; in the assay on NCI-H23 lung it was > 100 µM and 17.2 µM; with SK-MEL-28 melanoma, > 100 µM and 16.3 µM; in the assay on SNB-75 CNS, > 100 µM and 79 µM.
On to `c1ccc2c(c1)c(NCCCCN1CCCCC1)cc1c3ccccc3c(NCCCCN3CCCCC3)cc21`, for which the GI50 with SK-OV-3 ovarian is 18.3 µM; with DU-145 prostate it was 16.3 µM; in the assay with PC-3 prostate it was 13.4 µM; with NCI-H23 lung, 20.5 µM; in the assay with SK-MEL-2 melanoma, 69.3 µM. The TGI in the assay on SK-OV-3 ovarian was 48.1 µM; in the assay on DU-145 prostate, 46.2 µM; with PC-3 prostate, 78.5 µM; in the assay with NCI-H23 lung, 44.5 µM; in the assay with SK-MEL-2 melanoma, more than 100 µM.
Take `C=CC(=O)N1CCN(c2ccc3cccc(NC(=O)c4cnc(C)cn4)c3n2)CC1`: the GI50 with DU-145 prostate is 2.45 µM; with PC-3 prostate, 2.86 µM; in the assay on NCI-H23 lung, 4.49 µM; in the assay on SK-MEL-28 melanoma it was 7.88 µM; in the assay with SNB-75 CNS, 0.565 µM; in the assay with SK-MEL-2 melanoma, 3.37 µM. Moreover, the TGI in the assay on DU-145 prostate was more than 100 µM; in the assay with PC-3 prostate, 26.5 µM; in the assay on NCI-H23 lung, 19.5 µM; in the assay with SK-MEL-28 melanoma it was 20.5 µM; in the assay on SNB-75 CNS it was 9.66 µM; in the assay on SK-MEL-2 melanoma, 27.8 µM.
Turning to `CN(C)c1ccc2c(c1)Sc1cc(N(C)C)ccc1N2C(=O)c1ccccc1`, the GI50 in the assay on SK-OV-3 ovarian is 54.8 µM; in the assay with DU-145 prostate, more than 100 µM; in the assay with PC-3 prostate it was 12.9 µM; in the assay with NCI-H23 lung it was 27.7 µM; in the assay with SK-MEL-28 melanoma it was 43.1 µM; with SNB-75 CNS, 15.4 µM. Besides, the TGI in the assay on SK-OV-3 ovarian was more than 100 µM; in the assay with DU-145 prostate, more than 100 µM; in the assay on PC-3 prostate it was more than 100 µM; in the assay with NCI-H23 lung, more than 100 µM; with SK-MEL-28 melanoma, more than 100 µM; with SNB-75 CNS it was 66.3 µM.
Consider `O=C(C1CCCCC1)[C@@H]1[C@]2(C(=O)NC3CCCCC32)[C@@H]2CCCN2[C@@]12C(=O)NC1CCC(Cl)CC12` (stereo partly specified), for which the GI50 was 145 µM with SK-OV-3 ovarian; 128 µM in the assay on DU-145 prostate; 119 µM in the assay on NCI-H23 lung; 129 µM with SK-MEL-28 melanoma; 58.1 µM in the assay on SNB-75 CNS; 147 µM with SK-MEL-2 melanoma. Also, the TGI worked out at 284 µM in the assay on SK-OV-3 ovarian; 259 µM in the assay with DU-145 prostate; 274 µM with NCI-H23 lung; 278 µM in the assay with SK-MEL-28 melanoma; 256 µM with SNB-75 CNS; 321 µM in the assay on SK-MEL-2 melanoma.
As for `CC(CN1CCN(CCOCCO)CC1)CN1c2ccccc2Sc2ccc(Cl)cc21` (stereo unspecified), the GI50 with SK-OV-3 ovarian was 8.87 µM; with DU-145 prostate, 5.05 µM; in the assay with PC-3 prostate, 2.6 µM; with NCI-H23 lung, 10.8 µM; in the assay with SK-MEL-28 melanoma, 1.75 µM; with SK-MEL-2 melanoma it was 1.87 µM. For the same compound, the TGI in the assay on SK-OV-3 ovarian was 21.8 µM; in the assay on DU-145 prostate, 17 µM; in the assay with PC-3 prostate, 10.6 µM; in the assay on NCI-H23 lung it was 24.2 µM; with SK-MEL-28 melanoma it was 3.22 µM; with SK-MEL-2 melanoma, 3.63 µM.
Regarding `COc1ccc(C2CC(c3cc(OC)c(OC)c(OC)c3)=NN2C(C)=O)cc1OCC(=O)Nc1nc2ccc(C(F)(F)F)cc2s1` (stereo unspecified), the GI50 was 5.75 µM in the assay with SK-OV-3 ovarian; 2.92 µM in the assay on PC-3 prostate; 3.76 µM in the assay with NCI-H23 lung; 1.55 µM in the assay with SNB-75 CNS; 3.08 µM in the assay on SK-MEL-2 melanoma. The TGI in the assay on SK-OV-3 ovarian was 39.1 µM; in the assay with PC-3 prostate, more than 100 µM; in the assay on NCI-H23 lung it was 33 µM; in the assay on SNB-75 CNS, 4.78 µM; with SK-MEL-2 melanoma, 20.4 µM.
As for `C=C1CC[C@@H]2[C@](C)(COC(C)=O)[C@@H](O)CC[C@@]2(C)[C@@H]1COc1ccc2ccc(=O)oc2c1`, the GI50 with DU-145 prostate is more than 100 µM; in the assay on PC-3 prostate, more than 100 µM; in the assay with NCI-H23 lung, more than 100 µM; in the assay with SK-MEL-28 melanoma it was more than 100 µM; in the assay on SNB-75 CNS, 17.6 µM; in the assay on SK-MEL-2 melanoma it was more than 100 µM. Also, the TGI in the assay on DU-145 prostate, with PC-3 prostate, in the assay on NCI-H23 lung, with SK-MEL-28 melanoma, in the assay on SNB-75 CNS and with SK-MEL-2 melanoma was more than 100 µM in each case.
In the case of `Cn1c2c(cc(S(=O)(=O)c3ccccc3)c1=O)CCc1c-2cnn1-c1ccc(Cl)cc1`, the GI50 in the assay with SK-OV-3 ovarian is 2.34 µM; in the assay with NCI-H23 lung, 4.65 µM; in the assay with SK-MEL-28 melanoma, 3.24 µM; in the assay with SNB-75 CNS it was 1.93 µM; in the assay on SK-MEL-2 melanoma it was 2.56 µM. For the same compound, the TGI was 5.24 µM in the assay on SK-OV-3 ovarian; more than 100 µM in the assay with NCI-H23 lung; 13.4 µM in the assay on SK-MEL-28 melanoma; 4.02 µM with SNB-75 CNS; 5.9 µM in the assay with SK-MEL-2 melanoma.
For the compound `CC(C)CC(CC1=CCC2CC1C2(C)C)C1=C(O)C(C)(C)C(=O)C(C)(C)C1=O` (stereo unspecified), the GI50 is 0.256 µM in the assay with SK-OV-3 ovarian; 0.465 µM in the assay on DU-145 prostate; 0.318 µM in the assay with PC-3 prostate; 0.321 µM in the assay with NCI-H23 lung; 0.24 µM with SNB-75 CNS; 0.286 µM with SK-MEL-2 melanoma. Moreover, the TGI is 0.733 µM in the assay with SK-OV-3 ovarian; more than 100 µM in the assay on DU-145 prostate; more than 100 µM in the assay on PC-3 prostate; 1.57 µM in the assay with NCI-H23 lung; 9.67 µM with SNB-75 CNS; 0.722 µM in the assay with SK-MEL-2 melanoma.
